Reference: patent US12502379B2, “Ponesimod for avoiding worsening of fatigue-related symptoms in multiple sclerosis patients” (Vanda Pharmaceuticals Inc., priority 2019, dated 2025)

How the values were obtained:
Format in all cases: in vivo, human
[1] = ALT increase relative to ULN; details: ponesimod 20 mg arm, teriflunomide 14 mg arm
[2] = test system: Patients (18-55 years) with RMS; test: Pre-specified MRI endpoints (Example 2); details: PON 20 mg vs TER 14 mg; baseline to week 108
Method: (§1) In this study, prespecified MRI-based endpoints and no evidence of disease activity (NEDA) status is evaluated.
(§2) Patients (18-55 years) with RMS (expanded disability status scale scores: 0-5.5) were randomized (1:1) to receive ponesimod (PON) 20 mg or teriflunomide (TER) 14 mg for 108 weeks. MRI assessments were: volume of T2 lesions; mean number of new gadolinium-enhancing (Gd+) T1 lesions and new/enlarging T2 lesions; and absence of active MRI lesions at week 108. NEDA-3 status (absence of confirmed relapse, Gd+T1 lesions and new/enlarging T2 lesions on annual MRIs, and 12-week confirmed disability accumulation) was evaluated from baseline to week 108.

[3] = test system: adult subjects with relapsing MS; test: FSIQ-RMS weekly symptoms score, change from baseline to Week 108
Text: In some embodiments, the patient-reported outcome questionnaire is the Fatigue Symptoms and Impact Questionnaire—Relapsing Multiple Sclerosis (FSIQ-RMS) (available from Mapi Research Trust). The FSIQ-RMS is an MS specific 20-item PRO measure that comprises 2 domains: one measuring MS symptoms and one measuring MS-related impacts. See Hudgens S, et al., Development and Validation of the FSIQ-RMS: A New Patient-Reported Questionnaire to Assess Symptoms and Impacts of Fatigue in Relapsing Multiple Sclerosis. Value Health. 2019 April; 22 (4): 453-466. doi: 10.1016/j.jval.2018.11.007. Epub 2019 Feb. 21. PubMed PMID: 30975397. With 7 symptom items and 13 impact items (in 3 impacts subdomains: physical, cognitive and emotional, and coping), the FSIQ-RMS is a comprehensive, valid, and reliable measure of fatigue-related symptoms and impacts in RMS patients. FIG. 2B depicts a conceptual framework for the FSIQ-RMS.
(§3) In some embodiments, the patient-reported outcome questionnaire is the symptom domain of the FSIQ-RMS. The FSIQ-RMS symptom domain (FSIQ-RMS-S) consists of seven items assessing fatigue-related symptoms with a recall period of 24 hours measured on an 11-point numeric rating scale; the standardized symptom domain score ranges from 0 to 100 with a higher score indicating greater fatigue. This domain (i.e., section 1 of the questionnaire) is completed on 7 consecutive days.
The patient-reported outcome questionnaire used for the below Examples is the Fatigue Symptoms and Impact Questionnaire-Relapsing Multiple Sclerosis (FSIQ-RMS). The FSIQ-RMS is an MS specific 20-item PRO measure that comprises 2 domains: one measuring MS symptoms (7 items) and one measuring MS-related impacts (13 items). The 7 symptom items and 13 impact items (in 3 impacts subdomains: physical, cognitive and emotional, and coping) are presented below.
For the MS symptoms domain, the FSIQ-RMS asks about a patient's fatigue-related symptoms of relapsing MS over the past 24 hours while doing routine daily activities (e.g., housework, yard work, shopping, working, etc.) for Items 1-6 or while at rest (e.g., reading a book, watching TV, etc.) for Item 7. Patients are asked to select a response on a scale of Oto 10 that best describes their experience and are asked to not skip any questions, with no answers being right or wrong.
Secondary efficacy variables and testing strategy: Four secondary efficacy endpoints were analyzed as per the statistical testing strategy outlined in FIG. 1. • Change from baseline to Week 108 in fatigue-related symptoms as measured by the symptoms domain of the FSIQ-RMS patient-reported outcome [Fatigue] • Cumulative number of combined unique active lesions from baseline to Week 108 on brain MRI [CUALs] • Time to first 12-week confirmed disability accumulation (CDA) from baseline to EOS on Expanded Disability Status Scale (EDSS) [12-week CDA] • Time to first 24-week CDA from baseline to EOS on EDSS [24-week CDA]
as §3, with “The” for “In some embodiments, the patient-reported outcome questionnaire is the symptom domain of the FSIQ-RMS. The”
FSIQ-RMS was completed during the pre-randomization period, at Visits 6, 7, 10, and 12 (Weeks 12, 24, 60, 84), 14 (EOT), and at unscheduled visits due to relapses (R1, R2, etc.) or other unscheduled visits (U1, U2, etc.) as described below. If applicable, FSIQ-RMS was performed at the corresponding visits in the PTOP.
The completion of the FSIQ-RMS during the pre-randomization period was done as follows: At Visit 1 (Screening), subjects who appear eligible based on the assessments made during this visit (but prior to the results from the laboratory assessments are received) were provided with the electronic device containing the FSIQ-RMS. […]

[4] = test system: Patients (18-55 years) with RMS; test: No evidence of disease activity (NEDA-3) status; details: PON 20 mg vs TER 14 mg; week 108
Method: as §1, §2

[5] = 12-lead ECG heart rate on Day 1, change from pre-dose
Method: As per up-titration regimen, the dose of ponesimod on Day 1 is 2 mg.

[6] = patients with no prior DMT treatment within about two years, FSIQ-RMS weekly symptoms score
[7] = patients without Gd+T1 lesions at baseline, FSIQ-RMS weekly symptoms score

For CCC/N=C1\S/C(=C\c2ccc(OC[C@H](O)CO)c(Cl)c2)C(=O)N1c1ccccc1C [Ponesimod, (R)-5-[3-chloro-4-(2,3-dihydroxy-propoxy)-benz[Z]ylidene]-2-([Z]-propylimino)-3-o-tolyl-thiazolidin-4-one], the “Proportion of subjects who experienced ALT increase >3×ULN” value [1] was 17.3%, the “Proportion of subjects who experienced ALT increase >8×ULN” value [1] was 0.7% and the “New Gd+T1 lesions per scan, rate ratio [RR]” value [2] was 0.42. The “New/enlarging T2 lesions per year, RR” value [2] was 0.44, the “Change from baseline to Week 108 in FSIQ-RMS weekly symptoms score (mean)” value ([3]; MMRM, Full Analysis Set, increase = worsening, ponesimod 20 mg, teriflunomide 14 mg) was −0.01 and the “Change From Baseline to Week 108: Stable or Improved” value ([3]; patients with baseline fatigue below the median, FSIQ-RMS weekly symptoms score) was roughly 65%. For the same compound, the “Change From Baseline to Week 108: Stable (−6.3 < x < +6.3)” value [3, 6] was 44.0%, the “Change From Baseline to Week 108: Stable or Improved” value [3, 6] was “about 75%” and the “Change From Baseline to Week 108: Improved (<−6.3)” value [3, 7] was 30.0%. The “Change From Baseline to Week 108: Stable or Improved” value [3, 7] was “about 68%”, the “NEDA-3, odds ratio (OR)” value [4] was 1.70 and the “Mean heart rate reduction compared to pre-dose (maximum)” value ([5]; Day 1, 2-hours post dose, ponesimod arm dose on Day 1 is 2 mg) was −8.7 bpm. The “ECG HR effect: time of nadir / maximum mean heart rate reduction post-dose” value ([5]; Day 1, first dose (ponesimod 2 mg per up-titration)) was 2 h and the “Subjects with asymptomatic post-dose HR≤40 bpm” value ([5]; Day 1, all had pre-treatment HR<55 bpm) was 3.
